# Data: patent US9085576B2 (AMGEN INC., priority 2013, dated 2015)
# Experiments:
# BACE = BACE (Homo sapiens (Human), UniProt P56817); test: In vitro BACE cell-based assay (Aβ40 in conditioned medium, sandwich ELISA)
# [1] = target: Beta Secretase enzyme (BACE) (Homo sapiens (Human), UniProt P56817); test: In vitro enzymatic BACE FRET assay; format: biochemical; conditions: read-out: BACE1 Enzyme assay IC50
# Cathepsin D (Cat D) = Cathepsin D (Cat D) (Homo sapiens (Human), UniProt P07339); test: In vitro enzymatic Cathepsin D (Cat D) FRET assay; format: biochemical; conditions: read-out: CatD IC50
# Abeta 40 = test: In vivo inhibition of beta-secretase: Abeta 40 reduction in CSF and brain of the rat; conditions: after 4 hrs; for % reduction of rat CSF levels at 10 pmk / % reduction of rat CSF levels (3 mpk): Abeta 40 in rat CSF; for % reduction of rat CSF levels at 10 pmk / % reduction of rat brain levels at 10 mpk: 10 mpk; for % reduction of rat brain levels at 10 mpk / % reduction of rat brain levels (3 mpk): Abeta 40 in rat brain
# BACE1 [2] = conditions: animals, orally available; cited from earlier work
# BACE1 [3] = target: BACE1 (Homo sapiens (Human), UniProt P56817); conditions: cited from earlier work
# [4] = tested on: pigment epithelium of the rat's eye; conditions: higher compound dose given for three months; cited from earlier work
# Cathepsin D (Cat D), sequence (P07339 65-412, species assumed): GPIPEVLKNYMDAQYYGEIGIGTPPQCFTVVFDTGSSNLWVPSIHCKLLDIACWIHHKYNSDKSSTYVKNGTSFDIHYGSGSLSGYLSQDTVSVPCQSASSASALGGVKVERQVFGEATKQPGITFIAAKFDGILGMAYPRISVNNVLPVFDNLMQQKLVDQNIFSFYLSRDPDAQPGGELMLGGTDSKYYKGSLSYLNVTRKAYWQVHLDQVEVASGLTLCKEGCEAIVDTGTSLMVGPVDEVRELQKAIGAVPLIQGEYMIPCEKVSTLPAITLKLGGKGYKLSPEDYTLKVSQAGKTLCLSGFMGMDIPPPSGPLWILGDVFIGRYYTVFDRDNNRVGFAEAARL
# BACE1 (Homo sapiens (Human), UniProt P56817), sequence (P56817 46-501): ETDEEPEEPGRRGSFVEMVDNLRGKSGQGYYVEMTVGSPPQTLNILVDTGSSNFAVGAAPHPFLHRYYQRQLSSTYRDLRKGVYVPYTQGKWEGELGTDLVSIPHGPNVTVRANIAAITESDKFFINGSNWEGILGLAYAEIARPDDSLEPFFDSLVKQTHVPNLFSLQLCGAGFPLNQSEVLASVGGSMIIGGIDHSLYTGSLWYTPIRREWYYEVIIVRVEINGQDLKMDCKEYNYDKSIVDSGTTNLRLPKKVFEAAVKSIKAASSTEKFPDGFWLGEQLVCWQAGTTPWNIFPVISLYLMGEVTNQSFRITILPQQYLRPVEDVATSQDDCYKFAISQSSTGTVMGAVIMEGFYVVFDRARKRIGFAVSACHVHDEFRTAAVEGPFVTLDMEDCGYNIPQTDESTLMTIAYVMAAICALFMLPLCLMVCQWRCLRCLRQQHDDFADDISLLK
# BACE, sequence (P56817 46-501, species assumed): as the sequence (P56817 46-501) above
# Beta Secretase enzyme (BACE), sequence (P56817 46-501): as above
Structure (SMILES),IC50 (BACE) [µM],IC50 [1] [µM],IC50 (Cathepsin D (Cat D)) [µM],% reduction of rat CSF levels at 10 pmk (Abeta 40) [%],% reduction of rat brain levels at 10 mpk (Abeta 40) [%],% reduction of rat CSF levels (3 mpk) (Abeta 40),% reduction of rat brain levels (3 mpk) (Abeta 40),Aβ-lowering effects (BACE1 [2]),"Aβ reductions in lumbar CSF (BACE1 [3]; healthy volunteers, oral dosing of 30 or 90 mg)",safety and tolerability (BACE1 [3]; healthy volunteers),eye toxicity finding [4],eye assessments (BACE1 [3]; people of the terminated Ph I dosing trial)
"N#Cc1cnc(C(=O)Nc2ccc(F)c([C@@]3(CF)N=C(N)O[C@@H]4C[C@@H]43)c2)c(Cl)c1 [Example 228, N-(3-((1R,5S,6R)-3-amino-5-(fluoromethyl)-2-oxa-4-azabicyclo[4.1.0]hept-3-en-5-yl)-4-fluorophenyl)-3-chloro-5-cyanopicolinamide]",0.0059,0.0419,1010,54,33,,,,,,,
"COc1cnc(C(=O)Nc2ccc(F)c([C@@]3(CF)N=C(N)O[C@@H]4C[C@@H]43)c2)c(Cl)c1 [Example 229, N-(3-((1R,5S,6R)-3-amino-5-(fluoromethyl)-2-oxa-4-azabicyclo[4.1.0]hept-3-en-5-yl)-4-fluorophenyl)-3-chloro-5-methoxypicolinamide]",0.0064,0.0341,956,41,8,,,,,,,
"Cc1cc(OC(F)F)cnc1C(=O)Nc1ccc(F)c([C@@]2(C(F)F)N=C(N)O[C@@H]3C[C@@H]32)c1 [Example 237, N-(3-((1R,5S,6R)-3-amino-5-(difluoromethyl)-2-oxa-4-azabicyclo[4.1.0]hept-3-en-5-yl)-4-fluorophenyl)-5-(difluoromethoxy)-3-methylpicolinamide]",0.0323,0.0377,327,72,67,,,,,,,
"NC1=N[C@@](c2cc(NC(=O)c3cnc(OC(F)F)cn3)ccc2F)(C(F)F)[C@H]2C[C@H]2O1 [Example 238, N-(3-((1R,5S,6R)-3-amino-5-(difluoromethyl)-2-oxa-4-azabicyclo[4.1.0]hept-3-en-5-yl)-4-fluorophenyl)-5-(difluoromethoxy) pyrazine-2-carboxamide]",0.0178,0.0214,5920,8,16,,,,,,,
"NC1=N[C@](CF)(c2cc(NC(=O)c3ncc(Cl)cc3Cl)ccc2Cl)[C@H]2C[C@H]2O1 [Example 281, N-(3-((1R,5S,6R)-3-amino-5-(fluoromethyl)-2-oxa-4-azabicyclo[4.1.0]hept-3-en-5-yl)-4-chlorophenyl)-3,5-dichloropicolinamide]",0.006,0.0441,2870,70,72,55 (3 mpk) %,34 (3 mpk) %,,,,,
"Cc1cc(C#N)cnc1C(=O)Nc1ccc(Cl)c([C@@]2(CF)N=C(N)O[C@@H]3C[C@@H]32)c1 [Example 283, N-(3-((1R,5S,6R)-3-amino-5-(fluoromethyl)-2-oxa-4-azabicyclo[4.1.0]hept-3-en-5-yl)-4-chlorophenyl)-5-cyano-3-methylpicolinamide]",0.0075,0.031,1580,75,69,61 (3 mpk) %,44 (3 mpk) %,,,,,
"COc1cnc(C(=O)Nc2cc(C)c(F)c([C@@]3(C(F)F)N=C(N)O[C@@H]4C[C@@H]43)c2)cn1 [Example 299, N-(3-((1R,5S,6R)-3-amino-5-(difluoromethyl)-2-oxa-4-azabicyclo[4.1.0]hept-3-en-5-yl)-4-fluoro-5-methylphenyl)-5-methoxypyrazine-2-carboxamide]",0.014,0.0305,465,74,62,,,,,,,
"Cc1cc(NC(=O)c2ncc(Cl)cc2F)cc([C@@]2(C(F)F)N=C(N)O[C@@H]3C[C@@H]32)c1F [Example 302, N-(3-((1R,5S,6R)-3-amino-5-(difluoromethyl)-2-oxa-4-azabicyclo[4.1.0]hept-3-en-5-yl)-4-fluoro-5-methylphenyl)-5-chloro-3-fluoropicolinamide]",0.0141,0.0315,811,37,9,,,,,,,
"COc1ccc(C(=O)Nc2cc(C)c(F)c([C@@]3(C(F)F)N=C(N)O[C@@H]4C[C@@H]43)c2)nc1 [Example 304, N-(3-((1R,5S,6R)-3-amino-5-(difluoromethyl)-2-oxa-4-azabicyclo[4.1.0]hept-3-en-5-yl)-4-fluoro-5-methylphenyl)-5-methoxypicolinamide]",0.0359,0.0522,355,41,20,,,,,,,
"COc1cnc(C(=O)Nc2ccc(F)c([C@@]3(C(F)F)N=C(N)O[C@@H]4C[C@@H]43)c2)c(F)c1 [Example 306, N-(3-((1R,5S,6R)-3-amino-5-(difluoromethyl)-2-oxa-4-azabicyclo[4.1.0]hept-3-en-5-yl)-4-fluorophenyl)-3-fluoro-5-methoxypicolinamide]",0.0256,0.0419,1040,13,−1,,,,,,,
"NC1=N[C@@](c2cc(NC(=O)c3ccc(OC(F)F)cn3)ccc2F)(C(F)F)[C@H]2C[C@H]2O1 [Example 312, N-(3-((1R,5S,6R)-3-amino-5-(difluoromethyl)-2-oxa-4-azabicyclo[4.1.0]hept-3-en-5-yl)-4-fluorophenyl)-5-(difluoromethoxy) picolinamide]",0.0179,0.0377,442,30,−1,,,,,,,
"N#Cc1cnc(C(=O)Nc2ccc(F)c([C@@]3(C(F)F)N=C(N)O[C@@H]4C[C@@H]43)c2)c(F)c1 [Example 388, N-(3-((1R,5S,6R)-3-amino-5-(difluoromethyl)-2-oxa-4-azabicyclo[4.1.0]hept-3-en-5-yl)-4-fluorophenyl)-5-cyano-3-fluoropicolinamide]",0.0069,0.0352,1270,21,4,,,,,,,
"COCc1cc(C#N)cnc1C(=O)Nc1ccc(F)c([C@@]2(C(F)F)N=C(N)O[C@@H]3C[C@@H]32)c1 [Example 391, N-(3-((1R,5S,6R)-3-amino-5-(difluoromethyl)-2-oxa-4-azabicyclo[4.1.0]hept-3-en-5-yl)-4-fluorophenyl)-5-cyano-3-(methoxymethyl)picolinamide]",0.0175,0.0116,1350,54,24,,,,,,,
"NC1=N[C@@](c2cc(NC(=O)c3cnc(OCC4CC4)cn3)ccc2F)(C(F)F)[C@H]2C[C@H]2O1 [Example 415, N-(3-((1R,5S,6R)-3-amino-5-(difluoromethyl)-2-oxa-4-azabicyclo[4.1.0]hept-3-en-5-yl)-4-fluorophenyl)-5-(cyclopropylmethoxy)pyrazine-2-carboxamide]",0.0551,0.043,747,27,14,,,,,,,
"NC1=N[C@@](c2cc(NC(=O)c3ncc(Cl)cc3CO)ccc2F)(C(F)F)[C@H]2C[C@H]2O1 [Example 419, N-(3-((1R,5S,6R)-3-amino-5-(difluoromethyl)-2-oxa-4-azabicyclo-[4.1.0]hept-3-en-5-yl)-4-fluorophenyl)-5-chloro-3-(hydroxymethyl)picolinamide]",0.0293,0.0332,276,57,42,,,,,,,
"C[C@@]1(c2cc(-c3cncnc3)c(F)cc2F)CCSC(N)=N1 [LY2811376, (S)-4-(2,4-difluoro-5-pyrimidin-5-yl-phenyl)-4-methyl-5,6-dihydro-4H-[1,3]thiazin-2-ylamine]",,,,,,,,profound Aβ-lowering effects,Prominent and long-lasting Aβ reductions,safe and well tolerated,,
C[C@@]1(c2cc(-c3cncnc3)c(F)cc2F)CCSC(N)=N1 [LY 2811376],,,,,,,,,,,damaged the pigment epithelium of the rat's eye,did not show any abnormalities
